These results are taken from ChEMBL document CHEMBL3588818 (Eur J Med Chem, 2015).

Molecules are shown by their SMILES.

Assay [1] has as its target T1, Vesicular acetylcholine transporter (Rattus norvegicus, UniProt Q62666).
T1 sequence (Q62666 whole entry): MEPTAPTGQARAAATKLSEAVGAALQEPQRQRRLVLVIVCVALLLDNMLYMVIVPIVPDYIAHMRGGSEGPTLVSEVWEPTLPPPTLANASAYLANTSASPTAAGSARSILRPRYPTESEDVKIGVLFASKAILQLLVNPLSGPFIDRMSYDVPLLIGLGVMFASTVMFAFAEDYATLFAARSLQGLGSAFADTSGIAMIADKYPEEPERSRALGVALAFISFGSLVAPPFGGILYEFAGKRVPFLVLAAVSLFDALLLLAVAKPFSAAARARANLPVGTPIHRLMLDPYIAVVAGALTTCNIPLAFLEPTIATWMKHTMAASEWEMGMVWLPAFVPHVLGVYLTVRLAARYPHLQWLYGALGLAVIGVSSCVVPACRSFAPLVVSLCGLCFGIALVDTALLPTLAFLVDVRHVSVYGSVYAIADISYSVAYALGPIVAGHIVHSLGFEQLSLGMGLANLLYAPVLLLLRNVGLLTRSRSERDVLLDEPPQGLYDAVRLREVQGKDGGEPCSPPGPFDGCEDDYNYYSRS
In words: Displacement of (-)-[3H]vesamicol from rat VAChT expressed in PC12 cell membranes incubated for 2 hrs by liquid scintillation counting based competitive radioligand binding assay. Also on record: species or system PC-12. As to conditions: read-out: Ki(app).

For assay [2], the target named is T2, Vesicular acetylcholine transporter (Torpedo californica, UniProt P81721).
T2 sequence (P81721 whole entry): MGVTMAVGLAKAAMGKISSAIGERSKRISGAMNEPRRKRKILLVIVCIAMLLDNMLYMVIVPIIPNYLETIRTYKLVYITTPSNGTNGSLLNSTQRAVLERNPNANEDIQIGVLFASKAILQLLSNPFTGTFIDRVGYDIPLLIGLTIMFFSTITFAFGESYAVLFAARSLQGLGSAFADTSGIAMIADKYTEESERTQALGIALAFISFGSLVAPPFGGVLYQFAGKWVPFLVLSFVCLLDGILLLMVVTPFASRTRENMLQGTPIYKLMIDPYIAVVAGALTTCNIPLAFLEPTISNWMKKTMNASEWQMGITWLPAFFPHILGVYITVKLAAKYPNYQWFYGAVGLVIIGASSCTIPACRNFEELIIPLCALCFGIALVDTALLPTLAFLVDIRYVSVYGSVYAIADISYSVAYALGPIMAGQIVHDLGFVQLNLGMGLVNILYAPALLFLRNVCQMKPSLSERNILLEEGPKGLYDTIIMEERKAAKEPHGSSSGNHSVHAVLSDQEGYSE
In words: Displacement of (-)-[3H]vesamicol from VAChT in Torpedo californica electric organ synaptic vesicles. Details: species or system Tetronarce californica. As to conditions: read-out: Ki(app).

Assay [3] deals with Sigma non-opioid intracellular receptor 1 (Rattus norvegicus, UniProt Q9R0C9). In words: Displacement of […] from sigma1 receptor in Sprague-Dawley rat cortical membranes incubated for 2 hrs by liquid scintillation counting based competitive radioligand binding assay. As to conditions: read-out: Ki(app).
Sigma non-opioid intracellular receptor 1, sequence (Q9R0C9 whole entry): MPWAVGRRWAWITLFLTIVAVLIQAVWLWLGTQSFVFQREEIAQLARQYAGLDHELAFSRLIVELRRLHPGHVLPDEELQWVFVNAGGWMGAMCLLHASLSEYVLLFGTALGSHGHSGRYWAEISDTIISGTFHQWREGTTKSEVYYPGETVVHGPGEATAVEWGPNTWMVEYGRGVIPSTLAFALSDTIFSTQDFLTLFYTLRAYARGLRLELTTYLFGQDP
Assay [4] in a line: Displacement of [3H]DTG from sigma2 receptor in Sprague-Dawley rat liver membranes incubated for 2 hrs in presence of dextrallorphan by liquid scintillation counting based competitive radioligand binding assay. As to conditions: read-out: Ki(app). (Displacement assays read how much labelled ligand stays bound in the presence of the test substance.)
Assay [5] relates to PC-12. Nature of the assay: Selectivity index, ratio of Ki for sigma1 receptor in Sprague-Dawley rat cortical membranes to Ki for rat VAChT expressed in PC12 cell membranes. It counts as cell-based.
The test system of assay [6] is PC-12. Nature of the assay: Selectivity index, ratio of Ki for sigma2 receptor in Sprague-Dawley rat liver membranes to Ki for rat VAChT expressed in PC12 cell membranes. It counts as cell-based.

In the case of `O=C(c1ccc(F)cc1)C1CCN([C@@H]2Cc3ccccc3C[C@H]2O)CC1` (racemic), the Ki came out at 24.4 nM in assay [1], 2.7 nM in assay [2], 215 nM in assay [3] and 284 nM in assay [4]. For the same compound, the results for the Ratio Ki in the assay with PC-12 [5] and in the assay on PC-12 [6] were 8.8 and 1.6, respectively.
In the case of `Nc1cccc2c1C[C@@H](O)[C@H](N1CCC(c3ccccc3)CC1)C2` (racemic), the Ki stood at 339 nM in assay [1], 55.3 nM in assay [3] and 726 nM in assay [4]. The Ratio Ki in the assay on PC-12 [5] was 0.2; in the assay on PC-12 [6], 2.1.
The matching figures for `O[C@@H]1Cc2ccccc2C[C@H]1N1CCC(c2ccncc2)CC1` (racemic): 19.3 nM, 8.9 nM, 258 nM, 0.5 and 13.4.
As for `O[C@@H]1CC=CC[C@H]1N1CCC(c2ccccc2)CC1` (racemic), the Ki in assay [1] turned out to be 18.4 nM; in assay [2], 0.34 nM; in assay [3], 5.8 nM; in assay [4], 77.1 nM. Moreover, the Ratio Ki came to 0.3 with PC-12 [5] and 4.2 in the assay on PC-12 [6].
Turning to `O[C@@H]1Cc2ccccc2C[C@H]1N1CCN(c2ccccc2)CC1` (racemic), the Ki in assay [1] was found to be 56 nM; in assay [3], 466 nM; in assay [4], 1280 nM. The Ratio Ki is 8.3 with PC-12 [5] and 22.7 in the assay with PC-12 [6].
Taken in the same sequence, the figures for `O[C@@H]1C[C@@H](OCc2ccc(F)cc2)CC[C@H]1N1CCN(c2ccccc2)CC1` (racemic) were 6190 nM, 189 nM, 1040 nM, below 0.1 and 0.2.
The matching figures for `O[C@@H]1Cc2ccccc2C[C@H]1N1CCC(N2CCCCC2)CC1` (racemic): 112 nM, 248 nM, 161 nM, 2.2 and 1.4.
Taken in the same sequence, the figures for `O=C(Nc1cccc2c1C[C@@H](O)[C@H](N1CCC(c3ccccc3)CC1)C2)c1ccc(F)cc1` (racemic) were 188 nM, 626 nM, 1380 nM, 3.3 and 2.2.
On to `CC(=O)C1(c2ccccc2)CCN([C@@H]2C[C@H](OCc3ccc(F)cc3)CC[C@H]2O)CC1` (racemic), for which the Ki is 260 nM in assay [1], 63.1 nM in assay [3] and 18.8 nM in assay [4]. Also, the Ratio Ki was 0.2 in the assay on PC-12 [5] and below 0.1 in the assay on PC-12 [6].
`O[C@@H]1CC[C@@H](OCc2ccc(F)cc2)C[C@H]1N1CCC(c2ccccc2)(c2ccccc2)CC1` (racemic): the figures for the Ki in assay [1], in assay [3] and in assay [4] were 603 nM, 456 nM and 2360 nM, respectively. In addition, the Ratio Ki in the assay on PC-12 [5] stood at 0.8; with PC-12 [6] it was 3.9.
For the compound `O[C@@H]1Cc2ccccc2C[C@H]1N1CCC(O)(c2ccccc2)CC1` (racemic), the Ki was 11.5 nM in assay [1], 67 nM in assay [3] and 549 nM in assay [4]. Further, the Ratio Ki in the assay on PC-12 [5] turned out to be 5.8; in the assay with PC-12 [6], 47.7.
Taken in the same sequence, the figures for `O[C@@H]1C[C@@H](OCc2ccc(F)cc2)CC[C@H]1N1CC=C(c2ccccc2)CC1` (racemic) were 2830 nM, 15.9 nM, 55.5 nM, below 0.1 and below 0.1.
On to `O[C@@H]1CC[C@@H](OCc2ccc(F)cc2)C[C@H]1N1CCC(N2CCCCC2)CC1` (racemic), for which the Ki in assay [1] amounted to 4790 nM; in assay [3], 553 nM; in assay [4] it was 543 nM. In addition, the Ratio Ki with PC-12 [5] and with PC-12 [6] was 0.1 each time.
For `Nc1cccc2c1C[C@@H](N1CCC(c3ccccc3)CC1)[C@H](O)C2` (racemic), the Ki in assay [1] worked out at 25.1 nM; in assay [2], 0.013 nM; in assay [3], 119 nM; in assay [4], 474 nM. Moreover, the Ratio Ki with PC-12 [5] came to 4.7; with PC-12 [6], 18.9.
On to `O[C@@H]1CC[C@@H](OCc2ccc(F)cc2)C[C@H]1N1CCN(c2ccccc2)CC1` (racemic), for which the Ki in assay [1] stood at 697 nM; in assay [3] it was 103 nM; in assay [4] it was 167 nM. Further, the Ratio Ki was found to be 0.2 with PC-12 [5] and 0.24 with PC-12 [6].
Turning to `O[C@@H]1CC[C@@H](OCc2ccc(F)cc2)C[C@H]1N1CCC(Cc2ccccc2)CC1` (racemic), the Ki in assay [1] was found to be 110 nM; in assay [3] it was 25.2 nM; in assay [4], 61.8 nM. The Ratio Ki was found to be 0.2 with PC-12 [5] and 0.6 with PC-12 [6].
For the compound `O[C@@H]1C[C@@H](OCc2ccc(F)cc2)CC[C@H]1N1CCC(Cc2ccccc2)CC1` (racemic), the Ki in assay [1] worked out at 1300 nM; in assay [3], 9.2 nM; in assay [4], 207 nM. Also, the Ratio Ki was below 0.1 in the assay with PC-12 [5] and 0.2 in the assay with PC-12 [6].
Taken in the same sequence, the figures for `O[C@@H]1CCCC[C@H]1N1CCC(c2ccccc2)(c2ccccc2)CC1` (racemic) were 6710 nM, 43.2 nM, 1830 nM, below 0.1 and 0.3.
The matching figures for `O[C@@H]1CC[C@@H](OCc2ccc(F)cc2)C[C@H]1N1CC=C(c2ccccc2)CC1` (racemic): 310 nM, 29.9 nM, 46.9 nM, below 0.1 and 0.2.
The matching figures for `O[C@@H]1CC[C@@H](OCCCF)C[C@H]1N1CCC(c2ccccc2)CC1` (racemic): 47.8 nM, 25.9 nM, 88.2 nM, 0.5 and 1.8.
For the compound `O[C@@H]1CC[C@@H](OCc2ccc(F)cc2)C[C@H]1N1CCc2ccccc2C1` (racemic), the figures for the Ki in assay [1], in assay [3] and in assay [4] were 4670 nM, 59 nM and 45.9 nM, respectively. Moreover, the Ratio Ki with PC-12 [5] and with PC-12 [6] was below 0.1 throughout.
`O[C@@H]1C[C@@H](OCc2ccc(F)cc2)CC[C@H]1N1CCC(c2ccccc2)CC1` (racemic): the Ki in assay [1] amounted to 2390 nM; in assay [3], 16.8 nM; in assay [4], 67.1 nM. Also, the Ratio Ki in the assay on PC-12 [5] and in the assay with PC-12 [6] was below 0.1 in each case.
With `CC(=O)C1(c2ccccc2)CCN([C@@H]2CCCC[C@H]2O)CC1` (racemic), the Ki worked out at 1460 nM in assay [1], 22.5 nM in assay [3] and 164 nM in assay [4]. The Ratio Ki in the assay with PC-12 [5] was below 0.1; in the assay with PC-12 [6] it was 0.1.
